Reference: patent US20260325500A1, “METHODS AND COMPOSITIONS FOR TREATING ACUTE STRESS DISORDER” (BioXcel Therapeutics, Inc., priority 2022, published 2026)
Counter-ions that a name gives are not always drawn. Marks after values point to notes of the source that are not given here.

Tests used:
[1] = test system: aggressive behavior of male Swiss albino mice; experiment: Resident intruder task, aggressive behavior (Example 5); type: in vivo; settings: for agitation/aggression in resident mice: mouse, in vivo
Description: Animal groups: Swiss albino male mice were distributed in 13 different experimental groups with 6-14 mice per group as illustrated in Table 9. Each experimental group was also coded so that the experimenter became unaware of the true experimental group during RI assay.
Rationale: The resident-intruder stress is an ethologically relevant model to examine mechanisms underlying stress-related psychiatric disorders. In male rats, a single resident-intruder exposure activates LC neurons. Considered as a major stress response system, LC-NE activation is critical in maintaining arousal in response to acute stress.
Study drugs: The test substances (Dexmedetomidine hydrochloride, latrepirdine dihydrochloride hydrate and sodium valproate) were dissolved in 0.9% normal saline which served as the vehicle. β-Estradiol was dissolved in 0.9% normal saline.
Study design and dosing: Bilateral ovariectomy surgery was carried out in 3-4 weeks old female Swiss albino mice as per the standard methods (Alagwu and Nneli, 2005). Animals were anesthetized using Avertin (2,2,2-Tribromoethanol) at 250 mg/kg, i.p. and were laid down on the surgery table and fixed with adhesive plaster. A midline incision was made on the dorsal region below the rib and 1 cm lateral to the either side of midline, a small incision was made on fascia to isolate the adipose fat supporting the ovaries. By slowly pulling out the fat tissue, the ovary was identified and excised the following uterine horn ligation with silk sutures. Fascia was covered with sutures and similar procedure was repeated on the other side as well. Superficial skin layers were sutured and gentamicin (80 mg/kg, s.c.) was given as antibiotic and meloxicam (4 mg/kg, s.c.) as analgesic, then povidone iodine was applied on superficial skin layers. Polyethylene glycol (PEG) was applied to prevent drying of eye balls and kept for recovery period of 3 weeks (surgery was carried by a single experimenter). Male Swiss albino mice (25-40 grams, Resident animals) was housed individually i.e., 1 animal/cage with an ovariectomized female Swiss albino mice for a period of three weeks (Isolated habituation). During this habituation period, female mice were treated with β-Estradiol at a dose of 0.2 mg/kg, s.c. Male Swiss albino mice (10-20 grams, Intruder animals) were housed 5 animals/cage for a period of five days (Social habituation). On the day of exposure, animals were brought into the experimental room 60 minutes before starting the experiment, to habituate them to the experimental conditions. […]
Statistical analysis: Data obtained was compared with basal scoring by using Student's paired two tailed t-test. Duration of attack, and latency of attack between the groups was analyzed using One-Way ANOVA followed by Bonferroni's posthoc test. […]

[2] = test system: CCK-4 induced panic anxiety in rats; experiment: Elevated plus maze, CCK-4 induced panic anxiety (Example 8); type: in vivo, Wistar rats; settings: for Entries, % increase as compared to CCK-4/Vehicle / Entries, Mean ± SEM / Time, % increase as compared to CCK-4/Vehicle / Time, Mean ± SEM: CCK4 0.2 mg/kg i.p.
Description: Rationale: In the past two decades panic induction with cholecystokinin-tetrapeptide (CCK-4) as an experimental model of human anxiety has become a focus of intensive research. CCK-4 is a synthetic analog of the endogenous neuropeptide cholecystokinin (CCK), which has been found in different brain regions. Particularly, high concentrations of CCK have been detected in regions that have been implicated in the mediation of panic attacks such as the cerebral cortex, amygdala, hippocampus, and brainstem nuclei. CCK-4 dose dependently induces panic attacks in healthy controls. Thus, CCK-4 has been postulated to fulfil the criteria for an ideal and valid panicogenic agent. […] Therefore, the CCK-4 challenge paradigm can serve as a useful tool to evaluate the anti-panic potential of novel anxiolytic compounds.
Animal groups: Male Wistar Rats were purchased at a body weight of 150 g and reached a body weight of about 220 g at the time of use. Animals were distributed in 6 different experimental groups with 12 […] per group as illustrated in Table 11. Each experimental group was also coded so that the experimenter became unaware of the true experimental group at the time EPM trial.
Study drugs: All compounds/drugs were prepared in saline (0.9% NaCl).
CCK-4 was prepared at a solution of 0.2 mg/ml which when injected i.p. at a dosage volume of 1 ml/kg results in a dose of 0.2 mg/kg.
Diazepam was prepared at a solution of 1 mg/ml which when injected i.p. at a dosage volume of 1 ml/kg results in a dose of 1 mg/kg.
Latrepirdine was prepared at concentrations of 2.5, 7.5, 25 and 37.5 mg/ml which when injected i.m. at a volume of 100 μL for a rat of 250 g results in doses of 1, 3, 10 and 15 mg/kg respectively.
Study design and dosing: The rats were randomly assigned to one of the different experimental groups. Each animal was identified by its group name, cage number, series (day) of experiment, and a number (from 1 to 4) written with permanent ink on its tail. They were handled by an experimenter for about 3 min each day during 1 week prior to the day of EPM trial.
The apparatus is a PVC maze covered with Plexiglas and subdivided into four equal exploratory arms (40×10 cm), which are all interconnected by a small platform (10×10 cm). The apparatus is placed 65 cm above the floor. Two arms are opened, and two others are closed with wall (high: 10 cm).
After compound administration, rat is placed on the platform opposite a closed arm. The number of entries and the time spent in each arm are recorded during a 5 min period. The animal is considered as entered in an arm when it places its four paws in the arm.
Statistical analysis: Data was analyzed using One-Way ANOVA followed by multiple comparison with Dunnett's post-hoc test. All statistical analyses were performed using GraphPad Prism software package (Version 9) and p value below 0.05 was considered as significant.

[3] = 1-15 mg/kg i.m., CCK-4 treated rats

Cc1ccc2c(c1)c1c(n2CCc2ccc(C)nc2)CCN(C)C1 [latrepirdine dihydrochloride hydrate]
duration of attack ([1]; 1 mg/kg, 3 mg/kg and 10 mg/kg, i.p.): significantly decreased
agitation/aggression in resident mice [1]: decreased agitation/aggression
Entries, % increase as compared to CCK-4/Vehicle ([2]; 1 mg/kg i.m.): (47.37) %
Entries, Mean ± SEM ([2]; 1 mg/kg i.m.): 2.8 ± 0.4 n
Time, % increase as compared to CCK-4/Vehicle ([2]; 1 mg/kg i.m.): (83.33) %
Time, Mean ± SEM ([2]; 1 mg/kg i.m.): 24.2 ± 4.7 s
Entries, % increase as compared to CCK-4/Vehicle ([2]; 3 mg/kg i.m.): (31.58) %
Entries, Mean ± SEM ([2]; 3 mg/kg i.m.): 2.5 ± 0.2 n
Time, % increase as compared to CCK-4/Vehicle ([2]; 3 mg/kg i.m.): (98.48) %
Time, Mean ± SEM ([2]; 3 mg/kg i.m.): 26.2 ± 3.3 s
Entries, % increase as compared to CCK-4/Vehicle ([2]; 10 mg/kg i.m.): (73.68) * %
Entries, Mean ± SEM ([2]; 10 mg/kg i.m.): 3.3 ± 0.3 n
Time, % increase as compared to CCK-4/Vehicle ([2]; 10 mg/kg i.m.): (158.33) ** %
Time, Mean ± SEM ([2]; 10 mg/kg i.m.): 34.1 ± 3.4 s
Entries, % increase as compared to CCK-4/Vehicle ([2]; 15 mg/kg i.m.): (126.32) *** %
Entries, Mean ± SEM ([2]; 15 mg/kg i.m.): 4.3 ± 0.4 n
Time, % increase as compared to CCK-4/Vehicle ([2]; 15 mg/kg i.m.): (266.67) **** %
Time, Mean ± SEM ([2]; 15 mg/kg i.m.): 48.4 ± 5.3 s

Cc1ccc2c(c1)c1c(n2CCc2ccc(C)nc2)CCN(C)C1 [latrepirdine, 2,8-dimethyl-5-[2-(6-methylpyridin-3-yl)ethyl]-3,4-dihydro-1H-pyrido[4,3-b]indole]
mean duration of attack ([1]; latrepirdine 10 mg/kg, i.p.): 36.87 s
agitation/aggression in resident mice [1]: significantly decreased agitation/aggression in resident mice
dose with the greatest effect on entries and time in open arms [2, 3]: 15 mg/kg
number of entries to and time spent in the open arms, significance [2, 3]: significant at the doses of 10 and 15 mg/kg
